In ChEMBL document CHEMBL3393036, “Tetra-substituted pyridinylimidazoles as dual inhibitors of p38α mitogen-activated protein kinase and c-Jun N-terminal kinase 3 for potential treatment of neurodegenerative diseases” (J Med Chem, 2015):

Key:
[1] = biological target: Mitogen-activated protein kinase 14 (Homo sapiens, UniProt Q16539); assay: Inhibition of p38alpha (unknown origin) assessed as phosphorylation of ATF-2 by ELISA
[2] = biological target: RAC-alpha serine/threonine-protein kinase (Homo sapiens) (UniProt P31749); assay: Inhibition of AKT1 (PKBa) (unknown origin) at 5.5 uM by Caliper Mobility Shift Assay
Chain of RAC-alpha serine/threonine-protein kinase (Homo sapiens) (P31749 whole entry): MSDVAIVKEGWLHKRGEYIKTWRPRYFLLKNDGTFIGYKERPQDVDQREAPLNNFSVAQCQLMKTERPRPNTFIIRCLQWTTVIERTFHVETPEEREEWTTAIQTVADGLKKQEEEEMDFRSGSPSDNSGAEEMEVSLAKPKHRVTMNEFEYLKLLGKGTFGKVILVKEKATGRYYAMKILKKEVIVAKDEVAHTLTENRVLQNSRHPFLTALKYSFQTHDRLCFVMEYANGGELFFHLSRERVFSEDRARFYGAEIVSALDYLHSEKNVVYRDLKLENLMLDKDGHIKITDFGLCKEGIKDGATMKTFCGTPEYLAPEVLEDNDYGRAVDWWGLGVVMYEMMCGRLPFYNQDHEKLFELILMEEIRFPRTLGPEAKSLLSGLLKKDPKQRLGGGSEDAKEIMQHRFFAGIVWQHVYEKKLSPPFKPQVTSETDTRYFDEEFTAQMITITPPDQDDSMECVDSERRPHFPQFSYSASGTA

[3] = biological target: T1, Aurora kinase A (Homo sapiens) (UniProt O14965); assay: Inhibition of AURKA (unknown origin) at 5.5 uM by Caliper Mobility Shift Assay
T1 sequence (whole entry): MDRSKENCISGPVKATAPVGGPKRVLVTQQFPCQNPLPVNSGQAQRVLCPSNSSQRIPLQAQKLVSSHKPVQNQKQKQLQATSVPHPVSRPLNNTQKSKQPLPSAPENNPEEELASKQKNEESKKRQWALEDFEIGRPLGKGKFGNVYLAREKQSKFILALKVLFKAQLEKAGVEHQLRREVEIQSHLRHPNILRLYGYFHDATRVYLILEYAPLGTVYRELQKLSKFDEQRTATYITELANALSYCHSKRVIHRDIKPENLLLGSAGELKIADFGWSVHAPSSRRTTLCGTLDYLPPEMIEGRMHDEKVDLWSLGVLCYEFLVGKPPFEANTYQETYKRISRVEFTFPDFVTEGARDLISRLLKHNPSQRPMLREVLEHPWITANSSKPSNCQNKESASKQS

[4] = biological target: Cyclin-dependent kinase 4/cyclin D1 (Homo sapiens) (UniProt P11802+P24385); assay: Inhibition of CDK4D1 (unknown origin) at 5.5 uM by Caliper Mobility Shift Assay; format: protein-complex assay
[5] = biological target: Epidermal growth factor receptor (Homo sapiens) (UniProt P00533); assay: Inhibition of EGFR (HER1) (unknown origin) at 5.5 uM by Caliper Mobility Shift Assay
[6] = biological target: Fibroblast growth factor receptor 1 (Homo sapiens) (UniProt P11362); assay: Inhibition of FGFR1 (unknown origin) at 5.5 uM by Caliper Mobility Shift Assay
[7] = test system: Fibroblast growth factor receptor 3 (Homo sapiens), P22607 [K650E]; assay: Inhibition of FGFR3 K650E (unknown origin) at 5.5 uM by Caliper Mobility Shift Assay
[8] = biological target: Glycogen synthase kinase-3 beta (Homo sapiens) (UniProt P49841); assay: Inhibition of GSK3beta (unknown origin) at 5.5 uM by Caliper Mobility Shift Assay
Chain of Glycogen synthase kinase-3 beta (Homo sapiens) (P49841 whole entry, looked up): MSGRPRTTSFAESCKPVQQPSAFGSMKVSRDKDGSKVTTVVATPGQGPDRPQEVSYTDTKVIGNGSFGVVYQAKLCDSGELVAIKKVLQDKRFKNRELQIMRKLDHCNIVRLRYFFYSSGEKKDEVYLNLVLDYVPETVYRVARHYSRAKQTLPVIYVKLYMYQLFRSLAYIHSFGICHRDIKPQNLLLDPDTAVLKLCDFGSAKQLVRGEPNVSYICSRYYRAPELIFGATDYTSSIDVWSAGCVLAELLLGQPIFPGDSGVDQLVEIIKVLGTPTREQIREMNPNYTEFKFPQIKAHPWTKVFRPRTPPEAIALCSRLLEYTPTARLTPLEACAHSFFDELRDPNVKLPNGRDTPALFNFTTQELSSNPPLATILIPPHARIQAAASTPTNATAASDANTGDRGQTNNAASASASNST

[9] = biological target: Insulin receptor (Homo sapiens) (UniProt P06213); assay: Inhibition of INSR (unknown origin) at 5.5 uM by Caliper Mobility Shift Assay
[10] = biological target: T2, Interleukin-1 receptor-associated kinase 4 (Homo sapiens) (UniProt Q9NWZ3); assay: Inhibition of IRAK4 (unknown origin) at 5.5 uM by Caliper Mobility Shift Assay
T2 sequence (whole entry): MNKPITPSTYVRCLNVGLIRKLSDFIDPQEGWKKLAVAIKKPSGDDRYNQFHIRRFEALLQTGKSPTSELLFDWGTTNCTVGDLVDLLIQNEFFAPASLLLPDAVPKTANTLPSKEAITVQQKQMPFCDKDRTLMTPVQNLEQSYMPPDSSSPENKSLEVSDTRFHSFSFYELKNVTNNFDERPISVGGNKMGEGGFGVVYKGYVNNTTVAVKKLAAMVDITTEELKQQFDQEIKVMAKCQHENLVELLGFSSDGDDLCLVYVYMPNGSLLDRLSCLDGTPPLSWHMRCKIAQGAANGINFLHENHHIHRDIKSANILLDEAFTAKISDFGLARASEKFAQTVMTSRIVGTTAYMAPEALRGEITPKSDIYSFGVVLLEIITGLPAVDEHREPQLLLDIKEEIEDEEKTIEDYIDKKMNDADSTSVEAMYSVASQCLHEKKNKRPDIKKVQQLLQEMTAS

[11] = biological target: Mitogen-activated protein kinase 9 (Homo sapiens) (UniProt P45984); assay: Inhibition of JNK2 (unknown origin) at 5.5 uM by Caliper Mobility Shift Assay
Chain of Mitogen-activated protein kinase 9 (Homo sapiens) (P45984 whole entry, looked up): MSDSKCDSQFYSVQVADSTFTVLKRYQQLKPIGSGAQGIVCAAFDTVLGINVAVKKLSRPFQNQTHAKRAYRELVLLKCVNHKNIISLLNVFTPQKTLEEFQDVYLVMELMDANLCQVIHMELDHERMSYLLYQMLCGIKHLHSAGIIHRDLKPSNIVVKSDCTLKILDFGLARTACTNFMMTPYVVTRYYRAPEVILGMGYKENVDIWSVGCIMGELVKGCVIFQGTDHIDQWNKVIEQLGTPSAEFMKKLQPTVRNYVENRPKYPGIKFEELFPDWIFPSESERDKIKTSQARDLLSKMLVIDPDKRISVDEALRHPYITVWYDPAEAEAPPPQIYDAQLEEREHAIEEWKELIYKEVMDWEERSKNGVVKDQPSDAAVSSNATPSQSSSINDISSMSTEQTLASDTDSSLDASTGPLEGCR

[12] = biological target: Mitogen-activated protein kinase kinase kinase kinase 4 (Homo sapiens) (UniProt O95819); assay: Inhibition of MAP4K4 (unknown origin) at 5.5 uM by Caliper Mobility Shift Assay
[13] = biological target: Mitogen-activated protein kinase 1 (Homo sapiens) (UniProt P28482); assay: Inhibition of MAPK1 (ERK2) (unknown origin) at 5.5 uM by Caliper Mobility Shift Assay
Chain of Mitogen-activated protein kinase 1 (Homo sapiens) (P28482 whole entry): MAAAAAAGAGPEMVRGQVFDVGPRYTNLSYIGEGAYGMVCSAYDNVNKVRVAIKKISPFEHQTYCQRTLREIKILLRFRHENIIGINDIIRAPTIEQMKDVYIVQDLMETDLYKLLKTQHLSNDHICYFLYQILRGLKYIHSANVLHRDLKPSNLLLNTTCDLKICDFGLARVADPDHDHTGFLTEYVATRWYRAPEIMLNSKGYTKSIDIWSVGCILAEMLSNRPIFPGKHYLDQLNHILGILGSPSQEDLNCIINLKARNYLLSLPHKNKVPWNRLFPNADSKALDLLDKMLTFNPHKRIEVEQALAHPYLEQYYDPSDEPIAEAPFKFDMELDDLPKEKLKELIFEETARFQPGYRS

[14] = biological target: Mitogen-activated protein kinase 10 (Homo sapiens, UniProt P53779); assay: Inhibition of MAPK10 (JNK3) (unknown origin) at 5.5 uM by Caliper Mobility Shift Assay
[15] = biological target: T3, MAP kinase-activated protein kinase 5 (Homo sapiens) (UniProt Q8IW41); assay: Inhibition of MAPKAPK5 (MK5) (unknown origin) at 5.5 uM by Caliper Mobility Shift Assay
T3 sequence (whole entry): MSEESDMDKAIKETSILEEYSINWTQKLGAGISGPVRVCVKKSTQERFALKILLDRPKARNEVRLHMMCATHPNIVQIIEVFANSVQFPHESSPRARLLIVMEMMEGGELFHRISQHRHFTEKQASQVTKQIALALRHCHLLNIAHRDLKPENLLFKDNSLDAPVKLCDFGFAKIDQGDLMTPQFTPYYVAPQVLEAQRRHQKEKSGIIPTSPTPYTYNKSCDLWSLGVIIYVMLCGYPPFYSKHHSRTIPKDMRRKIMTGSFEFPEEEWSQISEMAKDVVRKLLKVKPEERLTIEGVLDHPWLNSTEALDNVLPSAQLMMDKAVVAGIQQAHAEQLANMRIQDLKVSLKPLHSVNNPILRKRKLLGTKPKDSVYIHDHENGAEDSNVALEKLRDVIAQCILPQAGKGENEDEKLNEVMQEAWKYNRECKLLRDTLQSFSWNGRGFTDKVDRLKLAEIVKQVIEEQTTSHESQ

[16] = biological target: Hepatocyte growth factor receptor (Homo sapiens) (UniProt P08581); assay: Inhibition of MET (unknown origin) at 5.5 uM by Caliper Mobility Shift Assay
Chain of Hepatocyte growth factor receptor (Homo sapiens) (P08581 whole entry): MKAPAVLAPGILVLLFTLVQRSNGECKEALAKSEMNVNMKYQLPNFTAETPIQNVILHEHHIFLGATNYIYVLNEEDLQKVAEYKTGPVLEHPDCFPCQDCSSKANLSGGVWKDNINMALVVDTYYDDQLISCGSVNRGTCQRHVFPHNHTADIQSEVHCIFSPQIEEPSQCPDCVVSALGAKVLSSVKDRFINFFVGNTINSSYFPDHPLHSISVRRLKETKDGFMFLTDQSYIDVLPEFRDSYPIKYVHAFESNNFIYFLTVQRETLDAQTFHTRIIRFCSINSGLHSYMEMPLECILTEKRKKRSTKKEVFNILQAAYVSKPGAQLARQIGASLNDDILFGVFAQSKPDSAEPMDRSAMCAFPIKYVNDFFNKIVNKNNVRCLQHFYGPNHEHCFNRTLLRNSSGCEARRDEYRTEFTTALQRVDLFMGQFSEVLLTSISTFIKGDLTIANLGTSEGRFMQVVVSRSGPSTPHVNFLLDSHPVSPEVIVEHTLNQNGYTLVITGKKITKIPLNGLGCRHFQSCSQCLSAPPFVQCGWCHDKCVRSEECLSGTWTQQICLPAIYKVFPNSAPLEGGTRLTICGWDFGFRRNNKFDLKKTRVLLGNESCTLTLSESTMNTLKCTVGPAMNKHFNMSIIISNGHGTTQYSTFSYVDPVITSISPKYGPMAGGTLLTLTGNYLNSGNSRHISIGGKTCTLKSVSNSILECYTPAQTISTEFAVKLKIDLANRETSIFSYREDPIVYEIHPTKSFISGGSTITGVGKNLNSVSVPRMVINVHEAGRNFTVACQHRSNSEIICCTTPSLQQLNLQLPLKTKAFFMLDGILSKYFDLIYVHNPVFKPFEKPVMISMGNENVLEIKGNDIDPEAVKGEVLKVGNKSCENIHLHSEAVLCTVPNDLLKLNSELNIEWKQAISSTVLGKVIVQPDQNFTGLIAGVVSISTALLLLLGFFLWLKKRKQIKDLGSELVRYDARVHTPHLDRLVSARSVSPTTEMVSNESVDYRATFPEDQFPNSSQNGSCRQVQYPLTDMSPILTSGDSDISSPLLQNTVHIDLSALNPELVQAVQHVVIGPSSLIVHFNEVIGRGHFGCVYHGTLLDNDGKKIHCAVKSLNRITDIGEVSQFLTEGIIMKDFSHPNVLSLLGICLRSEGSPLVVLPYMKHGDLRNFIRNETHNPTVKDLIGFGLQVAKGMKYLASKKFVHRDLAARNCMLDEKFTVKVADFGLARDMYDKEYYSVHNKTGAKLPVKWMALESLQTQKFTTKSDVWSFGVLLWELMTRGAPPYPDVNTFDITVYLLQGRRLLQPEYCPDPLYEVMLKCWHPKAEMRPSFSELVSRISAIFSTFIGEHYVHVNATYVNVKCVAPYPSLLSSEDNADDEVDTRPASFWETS

[17] = biological target: Serine/threonine-protein kinase PAK 2 (Homo sapiens) (UniProt Q13177); assay: Inhibition of PAK2 (unknown origin) at 5.5 uM by Caliper Mobility Shift Assay
[18] = biological target: Platelet-derived growth factor receptor alpha (Homo sapiens) (UniProt P16234); assay: Inhibition of PDGFRa (unknown origin) at 5.5 uM by Caliper Mobility Shift Assay
[19] = organism: Homo sapiens; assay: Inhibition of PRKACA(PKA) (unknown origin) at 5.5 uM by Caliper Mobility Shift Assay
[20] = biological target: Protein kinase C alpha type (Homo sapiens) (UniProt P17252); assay: Inhibition of PRKCA (unknown origin) at 5.5 uM by Caliper Mobility Shift Assay
[21] = biological target: Rho-associated protein kinase 2 (Homo sapiens) (UniProt O75116); assay: Inhibition of ROCK2 (unknown origin) at 5.5 uM by Caliper Mobility Shift Assay
[22] = biological target: TRAF2 and NCK-interacting protein kinase (Homo sapiens) (UniProt Q9UKE5); assay: Inhibition of TNIK (unknown origin) at 5.5 uM by Caliper Mobility Shift Assay
Chain of TRAF2 and NCK-interacting protein kinase (Homo sapiens) (Q9UKE5 whole entry, looked up): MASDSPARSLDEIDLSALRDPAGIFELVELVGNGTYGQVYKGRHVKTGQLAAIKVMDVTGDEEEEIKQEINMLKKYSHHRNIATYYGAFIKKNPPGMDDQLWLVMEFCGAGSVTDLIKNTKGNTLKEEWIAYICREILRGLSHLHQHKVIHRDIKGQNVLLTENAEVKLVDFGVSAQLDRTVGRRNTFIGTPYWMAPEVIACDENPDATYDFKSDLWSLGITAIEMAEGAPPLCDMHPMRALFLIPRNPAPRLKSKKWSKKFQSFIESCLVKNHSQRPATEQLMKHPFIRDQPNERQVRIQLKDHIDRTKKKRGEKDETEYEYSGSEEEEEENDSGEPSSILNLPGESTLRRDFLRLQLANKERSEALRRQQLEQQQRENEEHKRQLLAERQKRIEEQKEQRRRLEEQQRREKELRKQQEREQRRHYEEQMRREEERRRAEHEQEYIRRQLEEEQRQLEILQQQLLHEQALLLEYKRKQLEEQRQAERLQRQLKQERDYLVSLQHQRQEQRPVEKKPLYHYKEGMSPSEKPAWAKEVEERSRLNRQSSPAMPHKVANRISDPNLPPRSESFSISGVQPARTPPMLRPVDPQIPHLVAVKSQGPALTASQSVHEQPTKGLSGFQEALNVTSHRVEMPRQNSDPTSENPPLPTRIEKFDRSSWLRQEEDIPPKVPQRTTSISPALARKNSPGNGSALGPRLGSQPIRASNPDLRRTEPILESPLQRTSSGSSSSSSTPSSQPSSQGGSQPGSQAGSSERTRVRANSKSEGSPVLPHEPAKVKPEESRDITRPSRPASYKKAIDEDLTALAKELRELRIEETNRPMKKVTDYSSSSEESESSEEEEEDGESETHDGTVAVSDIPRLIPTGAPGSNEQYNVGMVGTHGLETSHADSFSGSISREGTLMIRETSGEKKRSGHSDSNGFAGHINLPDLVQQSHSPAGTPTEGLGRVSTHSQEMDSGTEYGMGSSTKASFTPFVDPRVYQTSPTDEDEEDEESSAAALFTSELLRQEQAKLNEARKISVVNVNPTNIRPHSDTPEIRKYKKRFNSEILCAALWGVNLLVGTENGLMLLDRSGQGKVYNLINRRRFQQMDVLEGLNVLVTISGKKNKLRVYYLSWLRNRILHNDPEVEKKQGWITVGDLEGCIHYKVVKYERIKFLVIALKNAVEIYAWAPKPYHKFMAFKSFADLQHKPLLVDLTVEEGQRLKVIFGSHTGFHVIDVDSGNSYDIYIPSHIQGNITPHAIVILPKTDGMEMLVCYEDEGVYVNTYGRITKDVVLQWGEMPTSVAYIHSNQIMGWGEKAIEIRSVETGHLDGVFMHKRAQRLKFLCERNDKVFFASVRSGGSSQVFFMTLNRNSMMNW

Chain of Mitogen-activated protein kinase 14 (Q16539 whole entry): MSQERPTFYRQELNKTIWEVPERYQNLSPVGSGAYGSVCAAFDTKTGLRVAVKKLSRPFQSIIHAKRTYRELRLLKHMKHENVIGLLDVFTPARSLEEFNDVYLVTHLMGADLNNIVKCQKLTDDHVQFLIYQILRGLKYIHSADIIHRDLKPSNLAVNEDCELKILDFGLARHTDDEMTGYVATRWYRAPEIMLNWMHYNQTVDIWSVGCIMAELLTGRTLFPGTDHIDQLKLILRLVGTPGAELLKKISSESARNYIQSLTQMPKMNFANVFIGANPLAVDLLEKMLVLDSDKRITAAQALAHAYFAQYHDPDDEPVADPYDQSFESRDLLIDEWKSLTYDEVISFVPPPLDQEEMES

| SMILES | IC50 [1] [nM] | inhibition [2] [%] | inhibition [3] [%] | inhibition [4] [%] | inhibition [5] [%] | inhibition [6] [%] | inhibition [7] [%] | inhibition [8] [%] | inhibition [9] [%] | inhibition [10] [%] | inhibition [11] [%] | inhibition [12] [%] | inhibition [13] [%] | inhibition [14] [%] | inhibition [15] [%] | inhibition [16] [%] | inhibition [17] [%] | inhibition [18] [%] | inhibition [19] [%] | inhibition [20] [%] | other results |
| --- | --- | --- | --- | --- | --- | --- | --- | --- | --- | --- | --- | --- | --- | --- | --- | --- | --- | --- | --- | --- | --- |
| CC(=O)Nc1cc(-c2c(-c3ccc(F)cc3)nc(S/C=C\C(=O)O)n2C2CCCCC2)ccn1 | 165 | < 50 | < 50 | < 50 | < 50 | < 50 | < 50 | < 50 | < 50 | < 50 | < 50 | < 50 | < 50 | < 50 | < 50 | < 50 | < 50 | < 50 | < 50 | < 50 | inhibition [21]: < 50%; inhibition [22]: < 50% |
| CC(=O)Nc1cc(-c2c(-c3ccc(F)cc3)nc(S/C=C\C(=O)O)n2C2CC2)ccn1 | 123 | < 50 | < 50 | < 50 | < 50 | < 50 | < 50 | < 50 | < 50 | < 50 | < 50 | < 50 | < 50 | < 50 | < 50 | < 50 | < 50 | < 50 | < 50 | < 50 | inhibition [21]: < 50%; inhibition [22]: < 50% |
| COC(Cn1c(SC2CCC(C(=O)O)CC2O)nc(-c2ccc(F)cc2)c1-c1ccnc(NC(C)=O)c1)OC (stereo not given) | 135 | < 50 | < 50 | < 50 | < 50 | < 50 | < 50 | < 50 | < 50 | < 50 | < 50 | < 50 | < 50 | < 50 | < 50 | < 50 | < 50 | < 50 | < 50 | < 50 | inhibition [21]: < 50%; inhibition [22]: < 50% |

Continued by falling IC50 [1], values first:

| IC50 [1] [nM] | inhibition [2] [%] | inhibition [3] [%] | inhibition [4] [%] | inhibition [5] [%] | inhibition [6] [%] | inhibition [7] [%] | inhibition [8] [%] | inhibition [9] [%] | inhibition [10] [%] | inhibition [11] [%] | inhibition [12] [%] | inhibition [13] [%] | inhibition [14] [%] | inhibition [15] [%] | inhibition [16] [%] | inhibition [17] [%] | inhibition [18] [%] | inhibition [19] [%] | inhibition [20] [%] | SMILES | other results |
| --- | --- | --- | --- | --- | --- | --- | --- | --- | --- | --- | --- | --- | --- | --- | --- | --- | --- | --- | --- | --- | --- |
| 356 | < 50 | < 50 | < 50 | < 50 | < 50 | < 50 | < 50 | < 50 | < 50 | < 50 | < 50 | < 50 | < 50 | < 50 | < 50 | < 50 | < 50 | < 50 | < 50 | CC(=O)Nc1cc(-c2c(-c3ccc(F)cc3)nc(Sc3cccc(I)n3)n2C2CCCCC2)ccn1 | inhibition [21]: < 50%; inhibition [22]: < 50% |
| 223 | < 50 | < 50 | < 50 | < 50 | < 50 | < 50 | < 50 | < 50 | < 50 | < 50 | < 50 | < 50 | < 50 | < 50 | < 50 | < 50 | < 50 | < 50 | < 50 | CC(=O)Nc1cc(-c2c(-c3ccc(F)cc3)nc(S/C=C\C(=O)O)n2CC2CCCO2)ccn1 (racemic) | inhibition [21]: < 50%; inhibition [22]: < 50% |
